Three compounds from patent US20080269102A1, “3-(2-Alkoxycarbonyloxy-Phenyl) Acrylic Acid Esters And Their Use As Precursors For The Delivery Of Olfactory Compounds” (GIVAUDAN SA, priority 2004, published 2008) can be followed below.

Data set [1] is described as follows: UV-spectra / colour comparison of protected and non-protected fragrance precursor in presence of a fabric conditioner. The data set is classed as physicochemical. As to conditions: 0.1 mg/ml in CH3CN/H2O (3:2), visually judged. The protocol: UV-Spectra Comparison (Protected/Non Protected Fragrance in Presence of a Fabric Conditioner)
Solutions A to D, 5 ml each, were prepared using CH3CN/H2O (3:2) as a solvent and their colour visually judged.
After adding a fabric conditioner to a solution comprising an unprotected fragrance precursor (solution A/B) the solution turned bright yellow, whereas a solution comprising a protected fragrance precursor (solution C/D) remains colourless.
The UV-spectra of solutions A to D were recorded and are depicted in FIG. 1.

Setting [2] is: additive fabric conditioner (30 mg).

As to `C=CCCCCCCCCOC(=O)C=Cc1ccccc1O` [Example 2, 3-(2-Hydroxy-phenyl)acrylic acid dec-9-enyl ester], the melting point came out at 58 °C. The Colour result in data set [1] (setting [2]) is given as “Bright”. Besides, in data set [1] (additive none), the Colour entry is given as “colourless”.

On to `CC(C)=CCCC(C)CCOC(=O)C=Cc1ccccc1O` (stereo not drawn) [Example 1, 3-(2-Hydroxy-phenyl)acrylic acid 3,7-dimethyl-oct-6-enyl ester], for which the melting point lay within 37 to 39 °C.

On to `C=CCCCCCCCCOC(=O)C=Cc1ccccc1OC(=O)Oc1ccccc1C=CC(=O)OCCCCCCCCC=C` [Example 3], for which the Colour entry in data set [1] (setting [2]) and in data set [1] (additive none) was “colourless” throughout.

Broadly, the melting point is the temperature of the solid-liquid transition.
